pIC50: −log10 of the molar value. Where two headings read alike, the source gives them in different places.
Key:
HeLa cells = experiment: Cytotoxicity studies in HeLa cells (MTT assay / crystal violet assay); format: cell-based; conditions: for pIC50: 48 h, read-out: IC50 in Hela cell line; for effect on cell viability: 20 μM alkyne alone, HeLa cells
Experimental: Cell cultures. HeLa cells (ATCC) were used in the following cell culture studies. HeLa cells were maintained in DMEM (Dulbecco's Modified Eagle's Medium) supplemented with 10% fetal bovine serum (MidSci; S01520HI), and 1% penicillin-streptomycin (Sigma-Aldrich; P4333) at 37° C. with 5% CO2.
Cytotoxicity studies. Test compound was dissolved in DMSO to afford a stock solution. The final concentration of DMSO in the cell culture was 1% (v/v) in PBS. HeLa cells were seeded in 96-well plates one day before the experiment. Different concentrations of prodrug was added into the cell culture. The cells were then incubated for 48 h at 37° C. with 5% CO2. The cell viability was tested by the MTT assay described in Levitz, S. M., et al. J Infect Dis 1985, 152, 938-945. Specifically, after 48 h of incubation, 5 mg/mL MTT (3-(4,5-dimethylthiazol-2-yl)-2,5-diphenyltetrazolium bromide) was added into the cell culture. After incubation for 4 h, the supernatant was removed and 100 μL DMSO was added into the wells containing the cells. After shaking gently for 3 min, absorbance at 605 nm was read by a plate reader.
Cytotoxicity studies using crystal violet assay. The test compound was dissolved in DMSO to afford a stock solution. The final concentration of DMSO in cell culture was 1% (v/v) in PBS. HeLa cells were seeded in 96-well plates one day before the experiment. Different concentrations of the test compound were added into the cell culture. The cells were then incubated for 48 h at 37° C. with 5% CO2. Cell viability was tested by the crystal violet assay. Specifically, after 48 h of incubation, the cells were fixed in 100% methanol for 10 min and stained for 20 min with a 1% crystal violet solution in 50% methanol, followed by 5 repeated washings with PBS. 50 μL of DMSO was added to each well. After 20 min of incubation, the plates were analyzed in a microplate reader at 595 nm.
Similar results were observed when the alkyne concentration was decreased to 10 μM. For example, the IC50 of TPP-Dox prodrug 1c was about 2 μM in the presence of 2b, while the IC50 for Dox prodrug 1b was well over 10 μM in the presence of 10 μM of the alkyne trigger 2a (FIG. 3a). As controls, both the IC50 values of 1c and 2b alone were higher than 40 μM, and the treatment of 20 μM of alkyne 2a or 2b alone had no effect on cell viability. […] Without such an enrichment, the reaction is expected to be slow, resulting in a lower level of active Dox being released. […] Thus, mitochondrial enrichment leads to triggered release of the drug. The same concept is applicable to the delivery of drugs through other targeting approaches such as receptor-mediated drug delivery.

[1] = HPLC studies of reaction kinetics of tetrazine prodrugs with cyclooctyne alkynes (Kobs, second-order rate constant k2); format: physicochemical; conditions: alkyne 2b; 37° C.; PBS containing 10% DMSO; n = 3
Experimental: Stock solution preparation. Each of the tetrazine prodrugs (compounds 1b, 1c, and 1d) was dissolved in DMSO to afford a 500-μM stock solution. Each of the alkynes (compounds 2a, 2b, 2c, and 2d) was dissolved in DMSO to afford a 50-mM stock solution. Doxorubicin (Dox) and dansylamino compound (DA) 1.1b were each dissolved in DMSO to afford 1-mM stock solutions.
(§1) HPLC method A.: mobile phase A (10 mM NaH2PO4 in water, pH=5.0) and mobile phase B (ACN), flow rate: 1 mL/min, running time: 30 min, the gradient elution method: 25% B from 0 to 6 min, 25% to 50% B from 6 to 8 min, 50% B from 8 to 15 min, 50% to 99% B from 15 to 20 min, 99% B from 20 to 25 min, 99% to 25% B from 25 to 30 min. Detection wavelength: 256 nm. Column: Waters C18 3.5 μM, 4.6×100 mm. Injection volume: 20 μL.
as §1, with “method B:” for “method A.:”, “method: 30%” for “method: 25%”, “min, 30%” for “min, 25%”, “25 min.” for “25 min,”, “to 30%” for “to 25%”, “Detection wavelength 1: 256, detection wavelength 2: 337” for “Detection wavelength: 256”
General procedures HPLC studies of reaction kinetics. To three 20-ml vials with 9 mL PBS were added a solution of tetrazine prodrug (500 μL, 500 μM). 350 μL, 300 μL and 250 μL DMSO were added to vial respectively, and then 150 μL, 200 μL and 250 μL of the alkyne solution (50 mM in DMSO) were added to the vials to afford final concentrations of alkyne 0.75 mM, 1 mM and 1.25 mM in PBS (10% DMSO, 25 μM prodrug) respectively. The reaction was stirred at r.t or 37° C. respectively. Every 30 min about 500 μL reaction mixtures were taken out and 20 μL of them were injected into the HPLC by the autosampler; the rest of them were poured back to the reaction mixture. (Note: In the cases of prodrugs 1d or 1b reacting with alkyne 2d at 37° C., the final concentrations of 2d in the kinetic studies were 250 μM, 300 μM and 350 μM).
Determination of second-order rate constants. The reaction rate constant, kobs, was calculated for each concentration of the alkyne by fitting the prodrug areas versus time using eq. 1: Y=A exp(−kobst) eq. 1 where Y is the prodrug area, and t is time. The pseudo-first-order rate constant, kobs, was then plotted against the concentration of alkyne to yield the second-order rate constant using eq 2: kobs=k2[Alkyne] eq. 2 where k2 is the second-order rate constant.

[2] = Homo sapiens, HeLa, compound alone

| Compound | pIC50 (HeLa cells; in the presence of 100 μM alkyne 2d) | k2 at 37° C. (second order rate constant) [1] [M⁻¹ s⁻¹] | effect on cell viability (HeLa cells) | pIC50 (HeLa cells; [2]) | pIC50 (HeLa cells; compound alone, listed as Alkyne 2b) |
| --- | --- | --- | --- | --- | --- |
| C#CCOc1ccc(-c2nnc(C(=O)O)nn2)cc1 [1a, 6-(4-(prop-2-yn-1-yloxy)phenyl)-1,2,4,5-tetrazine-3-carboxylic acid] | < 4.00 | 0.25 | – | – | – |
| O=C(NCCC[P+](c1ccccc1)(c1ccccc1)c1ccccc1)c1ccc(CC2(O)C#CCCCCC2)cc1.[Br-] (stereo not shown) [2b, (3-(4-((1-hydroxycyclooct-2-yn-1-yl)methyl)benzamido)propyl)-triphenylphosphonium bromide] | – | – | no effect | < 4.40 | < 4.30 |
| COc1cccc2c1C(=O)c1c(O)c3c(c(O)c1C2=O)C[C@@](O)(C(=O)CO)C[C@@H]3O[C@H]1C[C@H](N)[C@H](O)[C@H](C)O1 [Dox, Doxorubicin, reference compound] | – | – | – | ~6.00 | – |
| O=C(O)c1ccc(CC2(O)C#CCCCCC2)cc1 (stereo not shown) [2a, 4-((1-hydroxycyclooct-2-yn-1-yl)methyl)benzoic acid] | – | – | no effect | – | – |

From patent publication US11607458B2 (Georgia State University Research Foundation, Inc, priority 2017, dated 2023)
